Results on five molecules are retold here after patent US8114589B2, “Self-addressable self-assembling microelectronic integrated systems, component devices, mechanisms, methods, and procedures for molecular biological analysis and diagnostics” (Gamida For Life B.V., priority 1996, dated 2012).

Like-named read-outs stand apart in the source and are kept apart here. {Amino} = amino group added with ABI Aminolink 2 reagent, used to attach Texas Red

One data set has as its system ET-10AL capture sequence. Description: Electronically controlled fluorescent DNA/dye (ethidium bromide) detection. In kind it is binding. The conditions noted are these: peak ethidium bromide fluorescence after positive bias 0.05 mA, 0.03 Volt-Hours; capture ET-10AL. The procedure: Microcapillary test devices were prepared and hybridized as described in Example 2 and 3. Ethidium bromide (EB) was added to the buffer solution (˜0.05 mM EB final concentration) and the test devices were biased negative to concentrate EB (positively charged) at both the hybridized and un-hybridized microlocations. The test devices were observed by epifluorescece microscopy at 550 nm excitation and 600 nm emission.
The test devices were re-mounted biased positive
constant current at 0.05 mA for 0.03 Volt-Hours, to selectively remove the EB. Fluorescence at the un-hybridized microlocations diminished while the hybridized microlocations retained a very high level of EB fluorescence. The results are given below:
Fluorescent signal was measured using an ICCD imaging

The test system of the next data set is DNA. Description: DNA transport (accumulation) on the APEX chip. The note with it: in words, same field conditions.
The target in data set [1] is streptavidin/biotin DNA probe (Streptomyces avidinii, UniProt P22629). Description: Streptavidin/biotin DNA probe capture affinity on the APEX chip. In kind it is binding.
Sequence of streptavidin/biotin DNA probe (P22629 25-183, species assumed): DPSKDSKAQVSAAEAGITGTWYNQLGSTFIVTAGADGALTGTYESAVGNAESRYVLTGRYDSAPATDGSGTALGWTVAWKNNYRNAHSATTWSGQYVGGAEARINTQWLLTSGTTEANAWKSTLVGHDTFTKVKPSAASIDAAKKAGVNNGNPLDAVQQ
For data set [2] the following is noted: cited from earlier work; for pK1 / pK2 / pK3: Table 2.
The nature of data set [3]: Buffer capacity, pH and conductivity of buffers used on the APEX chip. The note with it: for PH: NaPO4: 20 mM adjusted to pH 7.4.
The test system of data set [4] is target DNA to the specific capture DNA. Description: DNA hybridization sensitivity on the APEX chip. The note with it: normal DNA.
Data set [5] has as its system btrRCA5 to ATA5 capture oligonucleotide. The experiment in a line: Accumulation and electronic hybridization in test buffers. The conditions noted are these: in words. The protocol: Microelectronic Chips, Permeation Layer and Instrumentation—These have been described previously with the following exception. The permeation layer employed herein has an underlayer of agarose beneath the top streptavidin-containing agarose layer (approximately one micron in total thickness). To make the underlayer, […] glyoxal agarose (2%) was spun on at 2000 rpms for 20 sec prior to the application of the streptavidin-agarose layer. In brief, the 5580 series APEX chip used for these experiments consists of a 5×5 array of […] circular microelectrodes with […] microelectrodes at each corner of the array. Chips were mounted on a micromanipulator stage and the microelectrodes activated by a power supply and appropriately controlled relay switches. Fluorescently labeled oligonucleotides on the chip were visualized using oblique illumination with two 594 nm HeNe lasers and the images were quantified using either NIH Image or IPLab Spectrum software packages.
Accumulation and Hybridization—Two biotinylated capture oligonucleotides, ATA5 and ATA4 were electronically transported and localized at adjacent microelectrodes. The solution was removed and the chip washed 3-4× in test buffer. Buffers employed in these studies are listed in Table 3 and were utilized at the listed pH values and concentrations presented.
The L-isomers of amino acids were used, unless otherwise noted. The chip was equilibrated in test buffer for 5-10 min. Then fresh buffer containing 10 nM BODIPY-Texas Red labeled RCA5 (btrRCA5), an oligonucleotide complementary to ATA5 but not ATA4 (RS paper) was applied.
The […] microelectrodes were employed as cathodes and one microelectrode within the array used as the corresponding anode. Accumulation was assessed by sourcing a 500 nA constant current to individual microelectrodes for 30 sec and monitoring the accumulation of fluorescence at the positively-biased (anode) site in the microelectrode array. Signal arising from non-fluorescent sources (ie. thermal noise, etc.) was subtracted. Experiments examining the effect of different currents upon signal accumulation were conducted in a similar fashion except that the applied current varied from 100 nA to 1 mA. […] For the comparison between conductivities of various buffers, the data is presented as fold increase over initial fluorescence to account for chip-to-chip variation as well as laser illumination variations in signal levels. For other experiments, the data is presented as attomol product versus time, after converting^2 the observed fluorescence intensity to moles of labeled oligonucleotide.
Following accumulation at one microelectrode location, the buffer was removed and fresh buffer containing btrRCA5 applied. An adjacent microelectrode was then sourced in a similar fashion. Upon completion, the buffer was removed and the chip washed 5-7× with test buffer without btrRCA5. The pair of previously targeted microelectrodes were then illuminated and the fluorescence present at each site quantified. Control experiments utilized a bodipy-Texas Red labeled oligonucleotide complementary to ATA4 to verify the integrity and concentration of the ATA4 capture oligonucleotide. Percent hybridization efficiency was calculated as follows: (complementary oligonucleotide signal−noncomplementary signal)/(signal present immediately prior to the end of the applied current)×100.

The subject of data set [6] is Reporter DNA to DNA1 or PNA1 capture. The experiment in a line: Hybridization of phosphodiester-linked oligonucleotides versus PNA analogues. The note with it: 200 nA versus 500 nA.
The test system of data set [7] is btrRCA5 to ATA5. The experiment in a line: Passive hybridization at different pHs.
From the text: Passive Hybridization at Different pHs—Biotinylated ATA5 and ATA4 were electronically targeted to adjacent sites upon streptavidin/agarose coated microarrays. […] A parallel hybridization was done in 6×SSC. After this hybridization period, the chips were washed in 0.2×STE, 0.1% sodium dodecyl sulfate, as above and the remaining fluorescence at each site quantitated. Fluorescence values present at ATA4 sites were subtracted from adjacent ATA5 sites and the remaining fluorescence converted to attomol btrRCA5 specifically hybridized. Additional experiments repeated this methodology and also examined buffer adjusted with concentrated acetic acid (at the pI and at pH 6 and 5).
For data set [8], the system named is btrRCA5 to ATA5. The experiment in a line: Passive hybridization versus electric field hybridization. The note with it: 50 mM.
Method: Passive Hybridization versus Electric Field Hybridization—ATA5 was electrically targeted to the first four columns of the microarray on streptavidin/agarose coated chips prepared as above, and ATA4 was targeted to the remaining column. For passive hybridization, either 5.0 nM or 0.5 nM btrRCA5 in 5×SSC (1×=0.15 M NaCl, 15 mM sodium citrate, pH 7.0) was applied for 1 min, then the chips were washed 6× in buffer and imaged. For the 3 min timepoint, fresh buffer containing btrRCA5 was applied and incubated for an additional 2 min to achieve 3 min cumulative incubation time. This approach was repeated for the remaining time points. […] Five sites, 4 with ATA5 previously attached and 1 with ATA4, were electronically targeted using 3.1 V total, (approximately 500 nA/site). […] In both passive and electric field mediated hybridization, the background signal present at the ATA4 sites was subtracted from the signal present at ATA5 sites.
For the next data set, the system named is Ras-G. The experiment in a line: Ras-12 single point mutation hybridization with 15-mer probes. In kind it is binding. An excerpt: In the Ras-12 example, 15-mer point mutation specific probes were electronically hybridized to 30-mer target sequences attached to the microlocations on test devices. The polarity at the microlocations was biased negative, and the hybrids were subjected to constant current for a given time, providing a defined power level which denatures the mis-match without affecting the perfect match.
Test devices were fabricated from microcapillary tubes as described previously in the specification. Attachment sequences Ras-G and Ras-T were periodate oxidized and covalently bound to the addressed microlocations.
Ras-G microlocation were then hybridized with Ras-1, Ras-2 or Ras-3. Ras-1 is the perfect match to Ras-G. Ras-2 is a one base pair mismatch (G-A). Ras-3 is a two base pair mismatch (G-A and G-T). The G-A mis-match produces the least destabilization to the DNA duplex, and is therefore the most difficult to distinquish from the perfect match.
Conventional hybridization was first carried out and the microlocations were examined fluorescently to measure to what extent complementary sequences were hybridized. The test devices (microcapillaries) were re-mounted and electronic hybridization was then carried out. […] The procedure and results are shown below: […]

With “5′-Amino-CCT GCT CAT GAG TCT CTC (DNA CCTGCTCATGAGTCTCTC; DNA, 5' {Amino}, backbone not given here; further chemistry not fully specified) [ET-11AL]”, the “Normalized Signal” value with ET-10AL capture sequence is listed as more than 200.

Regarding `NCCCC[C@H](N)C(=O)O` [Lysine], the transport entry in the data set with DNA was “fair transport”. Further, in data set [1], the “SA-Biotin T12 Sensitivity” value is listed as >7.5 × 10^10. In data set [2], the pK1 result is given as “pK1 - 2.2”, the pK2 result was “pK2 - 8.9”, the pK3 entry is recorded as “pK3 - 10.3” and the pI is reported as 9.74. In data set [3], this molecule displayed a conductivity of 477.0 μS and a PH of 9.6.

Regarding `N[C@@H](Cc1c[nH]cn1)C(=O)O` [Histidine], the transport entry in the data set with DNA was “good transport”. Besides, in data set [1], the “SA-Biotin T12 Sensitivity” value is recorded as 3 × 10^6. Moreover, the “Hybridization Sensitivity of DNA” value in data set [4] is given as 3×10^6 targets. The “support of sequence specific electronic hybridization” value in data set [5] was “demonstrated specific hybridization”. Also, in [6], the “DNA:DNA hybridization” value is recorded as “only occurs well at 500 nA” and the “PNA:DNA hybridization” value was “occurs at roughly equal efficiencies at either current”. For the setting “200 nA”, the “pH of the solution” value was more than 6. Moreover, for the setting “500 nA”, the “pH of the solution” value is reported as more than 5. In addition, the “pH above the surface of the permeation layer” value (not told) is more than 5. In [2], the pK1 entry is on record as “pK1 - 1.8”, the pK2 entry is reported as “pK2 - 6.0”, the pK3 result is reported as “pK3 - 9.0” and the pI is on record as 7.47. In the data set on btrRCA5 to ATA5 [7] (at its pI (pH 7.5), 50 mM), the passive hybridization entry was “does not facilitate hybridization”. Also, the passive hybridization entry in the data set with btrRCA5 to ATA5 [7] (pH 6.0 and 5.0, 50 mM) is listed as “accelerated hybridization”. Besides, the “hybridization in the absence of an applied electric field” value with btrRCA5 to ATA5 [8] is “No hybridization was observed”. In [3], this molecule displayed a conductivity of 212.0 μS and a PH of 7.6. In addition, the conductivity in data set [3] (hi purity) came out at 172.0 μS.

“3′-CC-GCG-GCC-GCC-ACA-C-5′-(TR) (DNA CCGCGGCCGCCACAC; TR label, further chemistry not given here; listed 3' to 5') [Ras-1]”: the “signal ratio of perfect match (Ras-G/Ras-1) to 1 bp mis-match (Ras-G/Ras-2)” value in the data set with Ras-G (conventional hybridization, 5×SSC 15 minutes 40° C., washes) is recorded as “about 10 to 1”; with Ras-G (electronic stringency control, 0.15 mA at 150 V for 4 minutes, 20° C.) it was more than 100 to 1.

As for “5′-Amino-TGCGAGCTGCAGTCAGACAT (DNA TGCGAGCTGCAGTCAGACAT; DNA, 5' {Amino}, backbone not given here; further chemistry not fully specified) [ET-21A]”, the “Normalized Signal” value with ET-10AL capture sequence is on record as 1.
